This is an account of results in article PMC3383642 (Nature, 2012).

Series [1] relates to platelet aggregation in whole human blood. The series is described as follows: Collagen-induced platelet aggregation in whole human blood. Type of series: cell-based.
For series [2] the following is noted: human plasma, ref Thompson Reuters Integrity, cited from earlier work; for AUC [μM*h] (median): median of reported values.
The target in series [3] is HRH1 (histamine receptor H1) (Homo sapiens, UniProt P35367). The experiment in a line: biochemical. Type of series: binding.
Chain of HRH1 (histamine receptor H1) (P35367 whole entry): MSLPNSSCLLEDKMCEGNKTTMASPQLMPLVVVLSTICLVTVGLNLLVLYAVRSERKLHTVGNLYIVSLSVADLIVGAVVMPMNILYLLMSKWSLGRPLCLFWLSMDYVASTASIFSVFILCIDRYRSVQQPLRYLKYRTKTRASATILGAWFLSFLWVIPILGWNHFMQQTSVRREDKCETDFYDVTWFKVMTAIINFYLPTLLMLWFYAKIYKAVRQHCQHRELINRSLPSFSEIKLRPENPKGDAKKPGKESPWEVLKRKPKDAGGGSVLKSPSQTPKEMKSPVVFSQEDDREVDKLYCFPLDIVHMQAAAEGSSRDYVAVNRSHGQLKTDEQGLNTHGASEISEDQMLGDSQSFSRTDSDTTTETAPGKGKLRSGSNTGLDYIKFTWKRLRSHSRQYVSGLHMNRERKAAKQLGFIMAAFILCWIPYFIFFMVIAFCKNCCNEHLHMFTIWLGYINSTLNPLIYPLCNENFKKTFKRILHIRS
Series [4] addresses T1, PTGS1 (ovine COX-1) (Ovis aries, UniProt P05979).
T1 sequence (P05979 25-600): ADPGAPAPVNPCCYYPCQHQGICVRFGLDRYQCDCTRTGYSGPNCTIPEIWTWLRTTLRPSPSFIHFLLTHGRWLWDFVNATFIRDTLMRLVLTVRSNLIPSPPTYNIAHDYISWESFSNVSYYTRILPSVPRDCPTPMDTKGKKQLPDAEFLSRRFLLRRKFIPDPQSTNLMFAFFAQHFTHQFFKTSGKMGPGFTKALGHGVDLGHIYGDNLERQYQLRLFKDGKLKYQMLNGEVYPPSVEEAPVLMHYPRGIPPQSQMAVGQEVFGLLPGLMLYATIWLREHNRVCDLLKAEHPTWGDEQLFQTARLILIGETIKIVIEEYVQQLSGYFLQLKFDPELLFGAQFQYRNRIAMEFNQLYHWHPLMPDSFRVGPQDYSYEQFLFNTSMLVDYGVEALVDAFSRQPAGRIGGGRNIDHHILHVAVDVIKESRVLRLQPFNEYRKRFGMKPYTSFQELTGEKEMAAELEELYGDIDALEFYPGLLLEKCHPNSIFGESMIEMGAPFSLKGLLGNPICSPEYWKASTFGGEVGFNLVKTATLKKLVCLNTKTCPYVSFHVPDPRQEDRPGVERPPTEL
The experiment in a line: biochemical.

Series [5] concerns the target T2, PGR (progesterone receptor) (Homo sapiens, UniProt P06401).
T2 sequence (P06401 679-913 limits assumed): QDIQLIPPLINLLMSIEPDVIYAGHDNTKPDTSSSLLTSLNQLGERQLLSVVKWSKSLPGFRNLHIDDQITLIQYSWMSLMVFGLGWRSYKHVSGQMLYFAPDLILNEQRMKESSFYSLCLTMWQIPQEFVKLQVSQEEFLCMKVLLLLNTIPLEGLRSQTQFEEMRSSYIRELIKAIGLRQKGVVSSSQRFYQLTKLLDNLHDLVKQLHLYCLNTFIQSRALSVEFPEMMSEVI
The experiment in a line: biochemical.

Series [6] deals with OPRM1 (opioid receptor, mu 1) (Homo sapiens, UniProt P35372). The experiment in a line: OPRM1 functional agonist assay. Type of series: cell-based. To be noted: Activity (μM) (median), target OPRM1; agonist per Figure S1E.
Chain of OPRM1 (opioid receptor, mu 1) (P35372 whole entry): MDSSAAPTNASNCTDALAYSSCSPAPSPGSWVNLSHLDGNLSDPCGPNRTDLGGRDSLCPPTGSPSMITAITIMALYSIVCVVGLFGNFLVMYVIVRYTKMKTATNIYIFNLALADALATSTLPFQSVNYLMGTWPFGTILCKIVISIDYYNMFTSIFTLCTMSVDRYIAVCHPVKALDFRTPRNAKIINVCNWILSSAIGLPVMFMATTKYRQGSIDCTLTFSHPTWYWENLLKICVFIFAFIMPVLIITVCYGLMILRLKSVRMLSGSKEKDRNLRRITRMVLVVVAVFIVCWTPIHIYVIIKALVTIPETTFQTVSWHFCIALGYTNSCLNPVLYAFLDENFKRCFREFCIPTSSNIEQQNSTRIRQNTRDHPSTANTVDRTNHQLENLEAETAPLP
Where [7] appears, read: Homo sapiens, Platelet, read-out: inhibition of platelet aggregation.

Several values for one entry are separate records, joined by “and”; a condition that tells them apart may be missing. Equal values may be shown once. Read-outs that look alike come from different tables or passages of the source.

The inhibition is the drop in the measured response relative to a control, in per cent. As a reminder, the AUC is the area under the concentration-time curve, a measure of exposure. As usually defined, the Cmax is the peak of the concentration-time curve. One may read the IC50 as the concentration that inhibits the measured activity by half. The low end stands for greater potency in that assay, the high end for weaker potency in that assay. Broadly, the EC50 is the concentration needed to bring the measured effect to its halfway point. Read a low EC50 as higher potency in that assay.

Take `CC(=O)Oc1ccccc1C(=O)O` [Acetylsalicylic acid]: the inhibition at 250 µM in series [1] (setting [7]) was in the range of 42 to 48%.
With `CN1CCN(C2=Nc3ccccc3Oc3ccc(Cl)cc32)CC1` [Loxapine], in series [2], the “AUC [μM*h] (median)” value was 0.21 µM·h. In addition, in series [2] (range of reported values), the area under the curve (AUC) was 0.03 to 0.43 µM·h and the highest concentration (Cmax) was 20 to 410 nM.
In series [3] (Activity (μM) (median)), `CC(Cc1ccccc1)NCCC(c1ccccc1)c1ccccc1` (centres unmarked) [Prenylamine] gave an IC50 of 7.87 µM. Moreover, the IC50 in series [3] (IC50 [μM]) turned out to be 7.9 µM. In series [2] (range of reported values), the “AUC” value is 0.12 µM·h and the Cmax was 1200 nM.
For the molecule `CNC(=C[N+](=O)[O-])NCCSCc1ccc(CN(C)C)o1` [Ranitidine], the “AUC [μM*h] (median)” value in series [2] was 9.67 µM·h. Further, in series [2] (range of reported values), the exposure (AUC) is 5.66 to 121.90 µM·h and the Cmax is 1140 to 9110 nM.
Take `CCN(CC)CCCN(c1ccccc1)C1Cc2ccccc2C1` [Aprindine]: half-maximal inhibition in series [3] (IC50 [μM]) (IC50) was put at 0.78 µM.
As for `COc1ccc(C(Cl)=C(c2ccc(OC)cc2)c2ccc(OC)cc2)cc1` [Chlorotrianisene], the IC50 in series [4] came out at 160 nM. Besides, in series [1] (0.5, 5 and 50 μM, collagen 1 μg/mL, compared with indomethacin), the “potency of inhibition of platelet aggregation in whole blood” value is given as “almost indistinguishable from that of indomethacin”.
In the case of `C[C@H]1C[C@@H]2[C@H]([C@@H](O)C[C@@]3(C)[C@H]2CC[C@]3(O)C(=O)CO)[C@@]2(C)C=CC(=O)C=C12` [Methylprednisolone], in series [5], the EC50 came out at 1300 nM. In addition, the “AUC [μM*h] (median)” value in series [2] was 1.28 µM·h. Also, in series [2] (range of reported values), the exposure (AUC) is 0.09 to 10.76 µM·h and the Cmax is 60 to 2110 nM.
Regarding `CC(NCCc1ccc(O)cc1)C(O)c1ccc(O)cc1` (centres unmarked) [Ritodrine], the “AUC [μM*h] (median)” value in series [2] is 0.11 µM·h. In addition, in series [2] (range of reported values), the “AUC” value was 0.03 to 0.32 µM·h and the Cmax is 10 to 150 nM. Moreover, it took 9.18 µM to reach a half-maximal effect in series [6] (EC50).
Regarding `CN(C)CCC=C1c2ccccc2C=Cc2ccccc21` [Cyclobenzaprine], the IC50 in series [3] (Activity (μM) (median)) was 0.02 µM; in series [3] (binding to histamine H1 receptor (HRH1), IC50), 0.021 µM and 0.02 µM. Also, the “AUC [μM*h] (median)” value in series [2] was 0.69 µM·h. The “AUC” value in series [2] (range of reported values) is 0.16 to 4.10 µM·h. The Cmax in series [2] (range of reported values) was 10 to 130 nM; in series [2] (read-out: median Cmax in plasma) it was 61 nM.
As for `COc1ccc2c(c1)c(CC(=O)O)c(C)n2C(=O)c1ccc(Cl)cc1` [indomethacin], in series [1] (setting [7]), the inhibition at 50 µM was 50%.
